The target of this assay is human Nav1.8 (Homo sapiens, UniProt Q9Y5Y9). Briefly: SyncroPatch384PE assay (automated patch clamp). In kind it is cell-based. Conditions: human Nav1.8/b3 CHO cells.
Where [1] appears, read: inactivated state block (P2 measurement), read-out: P2 IC50.
[2] abbreviates: resting state block (P1 measurement), read-out: P1 IC50.

Consider 19 molecules from patent US20250154109A1, “SODIUM CHANNEL BLOCKING COMPOUNDS, DERIVATIVES THEREOF, AND METHODS OF THEIR USE” (LATIGO BIOTHERAPEUTICS, INC, priority 2022, published 2025).

What is called IC50 is the concentration at which inhibition is half-maximal.

Where a name gives a salt, the structure may show the parent alone. Read-outs that look alike come from different tables or passages of the source.

Chain of human Nav1.8 (Q9Y5Y9 whole entry): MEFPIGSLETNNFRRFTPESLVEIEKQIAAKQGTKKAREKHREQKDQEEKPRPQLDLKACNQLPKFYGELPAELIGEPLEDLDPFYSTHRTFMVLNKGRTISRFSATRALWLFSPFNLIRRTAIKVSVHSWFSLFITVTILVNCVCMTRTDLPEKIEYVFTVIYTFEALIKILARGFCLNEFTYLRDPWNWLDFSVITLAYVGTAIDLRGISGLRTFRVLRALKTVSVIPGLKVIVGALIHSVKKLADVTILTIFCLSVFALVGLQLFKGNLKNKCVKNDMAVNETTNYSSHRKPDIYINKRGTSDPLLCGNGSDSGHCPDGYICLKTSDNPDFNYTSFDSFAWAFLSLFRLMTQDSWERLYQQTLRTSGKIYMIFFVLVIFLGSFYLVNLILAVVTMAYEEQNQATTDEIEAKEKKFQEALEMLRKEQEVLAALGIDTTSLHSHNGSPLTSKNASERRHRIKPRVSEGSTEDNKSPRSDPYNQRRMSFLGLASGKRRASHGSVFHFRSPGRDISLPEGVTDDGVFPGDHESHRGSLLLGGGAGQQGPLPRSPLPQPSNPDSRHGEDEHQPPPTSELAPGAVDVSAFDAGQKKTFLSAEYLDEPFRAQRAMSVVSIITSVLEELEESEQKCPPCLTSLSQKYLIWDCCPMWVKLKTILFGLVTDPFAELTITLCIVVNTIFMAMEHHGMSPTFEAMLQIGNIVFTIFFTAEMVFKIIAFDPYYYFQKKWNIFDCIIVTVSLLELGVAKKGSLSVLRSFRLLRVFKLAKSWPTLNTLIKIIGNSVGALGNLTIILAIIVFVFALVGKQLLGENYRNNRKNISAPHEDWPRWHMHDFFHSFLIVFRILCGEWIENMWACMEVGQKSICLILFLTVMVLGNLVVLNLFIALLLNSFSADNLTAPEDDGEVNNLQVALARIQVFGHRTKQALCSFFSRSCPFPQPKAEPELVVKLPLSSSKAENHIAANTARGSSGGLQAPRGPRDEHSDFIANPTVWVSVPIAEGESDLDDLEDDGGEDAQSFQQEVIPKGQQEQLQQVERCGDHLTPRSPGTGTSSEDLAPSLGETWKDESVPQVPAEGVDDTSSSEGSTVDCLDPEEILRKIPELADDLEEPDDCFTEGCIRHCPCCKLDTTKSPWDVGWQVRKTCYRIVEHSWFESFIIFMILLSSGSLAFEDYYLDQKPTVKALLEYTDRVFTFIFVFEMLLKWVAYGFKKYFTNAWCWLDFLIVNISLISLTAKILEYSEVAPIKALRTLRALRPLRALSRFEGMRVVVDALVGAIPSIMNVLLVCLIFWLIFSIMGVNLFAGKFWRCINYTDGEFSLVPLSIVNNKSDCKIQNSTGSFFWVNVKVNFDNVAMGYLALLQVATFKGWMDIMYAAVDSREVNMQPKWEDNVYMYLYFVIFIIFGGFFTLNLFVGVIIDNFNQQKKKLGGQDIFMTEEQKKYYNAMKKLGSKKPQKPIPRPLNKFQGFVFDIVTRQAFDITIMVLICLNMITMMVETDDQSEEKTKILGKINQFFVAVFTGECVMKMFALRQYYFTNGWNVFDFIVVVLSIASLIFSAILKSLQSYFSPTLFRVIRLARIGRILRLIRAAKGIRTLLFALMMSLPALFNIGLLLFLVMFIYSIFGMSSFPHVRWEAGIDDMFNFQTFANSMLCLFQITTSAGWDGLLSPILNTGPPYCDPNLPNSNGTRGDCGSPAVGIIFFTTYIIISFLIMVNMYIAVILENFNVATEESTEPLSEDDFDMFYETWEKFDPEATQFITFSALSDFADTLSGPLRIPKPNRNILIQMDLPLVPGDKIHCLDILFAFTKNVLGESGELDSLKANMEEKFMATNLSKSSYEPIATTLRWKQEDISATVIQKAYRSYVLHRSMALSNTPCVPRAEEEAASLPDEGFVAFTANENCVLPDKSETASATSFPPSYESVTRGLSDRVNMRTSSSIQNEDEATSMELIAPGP

Consider `Cc1c(C(F)(F)F)cnc(N2CCCC(F)(F)CC2)c1C(=O)Nc1cccc([S@@](C)(=O)=NC(=O)CN2CC(F)(F)C2)c1` [Example 202, (R)-2-(4,4-difluoroazepan-1-yl)-N-(3-(N-(2-(3,3-difluoroazetidin-1-yl)acetyl)-S-methylsulfonimidoyl)phenyl)-4-methyl-5-(trifluoromethyl)nicotinamide], for which the IC50 is no more than 5 nM under setting [1] and no more than 5 nM under setting [2].

Consider `Cc1c(C(=O)Nc2cccc([S@](C)(=N)=O)c2)c(N2CCCC(F)(F)CC2)nc(C(F)(F)F)c1-c1ccc(C#N)cc1` [Example 131, (R)-5-(4-cyanophenyl)-2-(4,4-difluoroazepan-1-yl)-4-methyl-N-(3-(S-methylsulfonimidoyl)phenyl)-6-(trifluoromethyl)nicotinamide], for which the IC50 by setting is: under setting [1], no more than 5 nM; under setting [2], no more than 5 nM.

Regarding `Cc1c(-c2ccncc2)cnc(N2CCCC(F)(F)CC2)c1C(=O)Nc1cccc(S(C)(=N)=O)c1` (centres unmarked) [Example 85, 6-(4,4-difluoroazepan-1-yl)-4-methyl-N-(3-(S-methylsulfonimidoyl)phenyl)-[3,4bipyridine]-5-carboxamide], the IC50 runs as follows: under setting [1], 50 to 100 nM; under setting [2], 50 to 100 nM.

On to `Cc1c(N2CC3(COC3)C2)cnc(N2CCCC(F)(F)CC2)c1C(=O)Nc1cccc([S@@](C)(=N)=O)c1` [Example 90, (S)-2-(4,4-difluoroazepan-1-yl)-4-methyl-N-(3-(S-methylsulfonimidoyl)phenyl)-5-(2-oxa-6-azaspiro[3.3]heptan-6-yl)nicotinamide], for which the IC50 runs as follows: under setting [1], 100 to 200 nM; under setting [2], 100 to 200 nM.

As for `CNCC(=O)N=[S@](C)(=O)c1cccc(NC(=O)c2c(N3CCCC(F)(F)CC3)ncc(-c3cnn(C)c3)c2C)c1` [Example 46, (R)-2-(4,4-difluoroazepan-1-yl)-4-methyl-5-(1-methyl-1H-pyrazol-4-yl)-N-(3-(S-methyl-N-(methylglycyl)sulfonimidoyl)phenyl)nicotinamide], the IC50 by setting is: under setting [1], 5 to 50 nM; under setting [2], 5 to 50 nM.

Take `Cc1c(-c2ccc(Cl)cc2)cnc(N2CCCC(F)(F)CC2)c1C(=O)Nc1cccc([S@](C)(=N)=O)c1` [Example 67, (R)-5-(4-chlorophenyl)-2-(4,4-difluoroazepan-1-yl)-4-methyl-N-(3-(S-methylsulfonimidoyl)phenyl)nicotinamide]: the IC50 is, setting by setting: under setting [1], no more than 5 nM; under setting [2], no more than 5 nM.

For `C[S@@](=N)(=O)c1cccc(NC(=O)c2c(N3CCCC(F)(F)CC3)cnc(C(F)(F)F)c2Cl)c1` [Example 208, (R)-3-chloro-5-(4,4-difluoroazepan-1-yl)-N-(3-(S-methylsulfonimidoyl)phenyl)-2-(trifluoromethyl)isonicotinamide], the IC50 lay within 5 to 50 nM under setting [1] and 5 to 50 nM under setting [2].

With `Cc1c(C#N)cnc(N2CCCC(F)(F)CC2)c1C(=O)NC12CC(C(N)=O)(C1)C2` [Example 136, N-(3-carbamoylbicyclo[1.1.1]pentan-1-yl)-5-cyano-2-(4,4-difluoroazepan-1-yl)-4-methylnicotinamide], the IC50 under setting [1] is no more than 5 nM and the concentration for half-maximal inhibition (IC50) under setting [2] is no more than 5 nM.

Regarding `Cc1n[nH]c(C)c1-c1cnc(N2CCCC(F)(F)CC2)c(C(=O)Nc2cccc([S@](C)(=N)=O)c2)c1C` [Example 152, (R)-2-(4,4-difluoroazepan-1-yl)-5-(3,5-dimethyl-1H-pyrazol-4-yl)-4-methyl-N-(3-(S-methylsulfonimidoyl)phenyl)nicotinamide], the IC50 reads like this: under setting [1], greater than 200 nM; under setting [2], greater than 200 nM.

Take `Cc1c(-c2cnn(C)c2)cnc(N2CCCC(F)(F)CC2)c1C(=O)Nc1cccc([S@@](C)(=O)=NC(=O)C(C)(C)N)c1` [Example 52, (R)-N-(3-(N-(2-amino-2-methylpropanoyl)-S-methylsulfonimidoyl)phenyl)-2-(4,4-difluoroazepan-1-yl)-4-methyl-5-(1-methyl-1H-pyrazol-4-yl)nicotinamide formate]: the IC50 by setting is: under setting [1], 5 to 50 nM; under setting [2], 5 to 50 nM.

For the molecule `CS(=N)(=O)c1cccc(NC(=O)c2cc(C(F)(F)F)nnc2N2CCCC(F)(F)CC2)c1` (centres unmarked) [Example 6, 3-(4,4-difluoroazepan-1-yl)-N-(3-(S-methylsulfonimidoyl)phenyl)-6-(trifluoromethyl)pyridazine-4-carboxamide], the IC50 was 5 to 50 nM under setting [1] and 5 to 50 nM under setting [2].

For `Cc1c(-c2cnn(C)c2)cnc(N2CCCC(F)(F)CC2)c1C(=O)Nc1cccc([S@@](C)(=O)=NC(=O)[C@H](C)O)c1` [Example 231, 2-(4,4-difluoroazepan-1-yl)-N-(3-((R)-N-((S)-2-hydroxypropanoyl)-S-methylsulfonimidoyl)phenyl)-4-methyl-5-(1-methyl-1H-pyrazol-4-yl)nicotinamide], the IC50 runs as follows: under setting [1], 5 to 50 nM; under setting [2], 5 to 50 nM.

`Cc1c(-c2cnn(C)c2)cnc(N2CCCC(F)(F)CC2)c1C(=O)Nc1ccc(F)c([S@](C)(=N)=O)c1` [Example 214, (R)-2-(4,4-difluoroazepan-1-yl)-N-(4-fluoro-3-(S-methylsulfonimidoyl)phenyl)-4-methyl-5-(1-methyl-1H-pyrazol-4-yl)nicotinamide]: the IC50 reads like this: under setting [1], 100 to 200 nM; under setting [2], 100 to 200 nM.

Take `CNCC(=O)N=[S@](C)(=O)c1cccc(NC(=O)c2c(N3CCCC(F)(F)CC3)ncc(C#CC3CC3)c2C)c1` [Example 64, (R)-5-(cyclopropylethynyl)-2-(4,4-difluoroazepan-1-yl)-4-methyl-N-(3-(S-methyl-N-(methylglycyl)sulfonimidoyl)phenyl)nicotinamide]: the IC50 runs as follows: under setting [1], no more than 5 nM; under setting [2], no more than 5 nM.

With `CS(=O)(=O)c1cccc(NC(=O)c2nnc(C(F)(F)F)cc2N2CCCC(F)(F)CC2)c1` [Example 39, 4-(4,4-Difluoroazepan-1-yl)-N-(3-(methylsulfonyl)phenyl)-6-(trifluoromethyl)pyridazine-3-carboxamide], the concentration for half-maximal inhibition (IC50) by setting is: under setting [1], greater than 200 nM; under setting [2], greater than 200 nM.

As to `Cc1c(-c2ccccc2)nnc(N2CCCC(F)(F)CC2)c1C(=O)Nc1cccc([S@@](C)(=N)=O)c1` [Example 117, (S)-3-(4,4-difluoroazepan-1-yl)-5-methyl-N-(3-(S-methylsulfonimidoyl)phenyl)-6-phenylpyridazine-4-carboxamide], the IC50 under setting [1] is 50 to 100 nM and the IC50 under setting [2] fell in the range of 100 to 200 nM.

For `Cc1cc(C(N)=O)nc(N2CCCC(F)(F)CC2)c1C(=O)Nc1cccc([S@](C)(=N)=O)c1` [Example 153, (R)-6-(4,4-difluoroazepan-1-yl)-4-methyl-N5-(3-(S-methylsulfonimidoyl)phenyl)pyridine-2,5-dicarboxamide], the IC50 runs as follows: under setting [1], greater than 200 nM; under setting [2], greater than 200 nM.

With `Cc1c(-c2cnn(C)c2)cnc(N2CCCC(F)(F)CC2)c1C(=O)Nc1cccc([S@@](C)(=O)=NC(=O)C2COC2)c1` [Example 54, (R)-2-(4,4-difluoroazepan-1-yl)-4-methyl-5-(1-methyl-1H-pyrazol-4-yl)-N-(3-(S-methyl-N-(oxetane-3-carbonyl)sulfonimidoyl)phenyl)nicotinamide], the IC50 lay in the range of 5 to 50 nM under setting [1] and 5 to 50 nM under setting [2].

Take `Cc1c(C#N)cnc(N2CCCC(F)(F)CC2)c1C(=O)Nc1cccc([S@](C)(=N)=O)c1` [Example 125, (R)-5-cyano-2-(4,4-difluoroazepan-1-yl)-4-methyl-N-(3-(S-methylsulfonimidoyl)phenyl)nicotinamide]: the IC50 is 5 to 50 nM under setting [1] and 5 to 50 nM under setting [2].
